Measured values from patent US9873709B2 (priority 2013, dated 2018).

Tests used:
[1] = tested on: JAK1-dependent STAT6 phosphorylation downstream of IL-13 stimulation in BEAS-2B human bronchial epithelial cells; test: cells; settings: read-out: IL13-pSTAT6 BEASB2B IC50
[2] = tested on: JAK1-dependent STAT6 phosphorylation downstream of IL-13 stimulation in TF-1 human erythroleukemia cells; test: cells; settings: TF-1, read-out: IL-13-pSTAT6 IC50

Row | Structure (SMILES) | IC50 [2] [nM] | IC50 [1] [nM]
1 | O=C(c1ccc(Nc2nc3c(N4CCC(CO)(c5ccc(Cl)cc5)CC4)cccn3n2)cc1)N1CCC(c2ccccn2)CC1 [Example 1-276, [4-[[8-[4-(4-chlorophenyl)-4-(hydroxymethyl)-1-piperidyl]-[1,2,4]triazolo[1,5-a]pyridin-2-yl]amino]phenyl]-[4-(2-pyridyl)-1-piperidyl]methanone] | 95.7 | 82
2 | C[C@@H]1CN(C2CCN(C(=O)c3ccc(Nc4nc5c(N6CCC(CO)(c7ccc(Cl)cc7)CC6)cccn5n4)cc3)CC2)C[C@H](C)O1 [Example 1-282, [4-[[8-[4-(4-chlorophenyl)-4-(hydroxymethyl)-1-piperidyl]-[1,2,4]triazolo[1,5-a]pyridin-2-yl]amino]phenyl]-[4-[(2R,6S)-2,6-dimethylmorpholin-4-yl]-1-piperidyl]methanone] | 42.6 | 55.6
3 | CN1CCC(N(C)C(=O)c2ccc(Nc3nc4c(N5CCC(CCO)(c6ccc(Cl)cc6)CC5)cccn4n3)cc2)CC1 [Example 1-255, 4-[[8-[4-(4-chlorophenyl)-4-(2-hydroxyethyl)-1-piperidyl]-[1,2,4]triazolo[1,5-a]pyridin-2-yl]amino]-N-methyl-N-(1-methyl-4-piperidyl)benzamide; formic acid] | 27.1 | 159
4 | CCOC(=O)N1CC=C(c2cccn3nc(Nc4ccc(C(=O)N5CCC(N6CCOCC6)CC5)cc4)nc23)CC1 [Example 2-18, ethyl 4-[2-[4-(4-morpholinopiperidine-1-carbonyl)anilino]-[1,2,4]triazolo[1,5-a]pyridin-8-yl]-3,6-dihydro-2H-pyridine-1-carboxylate] |  | 134
5 | CN(CCC#N)C1CCN(C(=O)Cn2cc(Nc3nc4c(N5CCC(CO)(c6ccc(Cl)cc6)CC5)cccn4n3)cn2)CC1 [Example 1-296, 3-[[1-[2-[4-[[8-[4-(4-chlorophenyl)-4-(hydroxymethyl)-1-piperidyl]-[1,2,4]triazolo[1,5-a]pyridin-2-yl]amino]pyrazol-1-yl]acetyl]-4-piperidyl]-methyl-amino]propanenitrile] |  | 12.6
6 | O=C(NC1CCN(C2CCCC2)CC1)c1ccc(Nc2nc3c(N4CCC(CO)(c5ccc(Cl)cc5)CC4)cccn3n2)cc1 [Example 1-280, 4-[[8-[4-(4-chlorophenyl)-4-(hydroxymethyl)-1-piperidyl]-[1,2,4]triazolo[1,5-a]pyridin-2-yl]amino]-N-(1-cyclopentyl-4-piperidyl)benzamide] | 124 | 52.8
7 | C[C@H]1CN(C2CCN(C(=O)c3ccc(Nc4nc5c(N6CCC(CO)(c7ccc(Cl)cc7)CC6)cccn5n4)cc3)CC2)C[C@H](C)O1 [Example 1-281, [4-[[8-[4-(4-chlorophenyl)-4-(hydroxymethyl)-1-piperidyl]-[1,2,4]triazolo[1,5-a]pyridin-2-yl]amino]phenyl]-[4-[(2S,6S)-2,6-dimethylmorpholin-4-yl]-1-piperidyl]methanone] | 70.2 | 134
8 | O=C(Cn1cc(Nc2nc3c(N4CCC(CO)(c5ccc(Cl)cc5)CC4)cccn3n2)cn1)N1CCC(CN2CCOCC2)CC1 [Example 1-289, 2-[4-[[8-[4-(4-chlorophenyl)-4-(hydroxymethyl)-1-piperidyl]-[1,2,4]triazolo[1,5-a]pyridin-2-yl]amino]pyrazol-1-yl]-1-[4-(morpholinomethyl)-1-piperidyl]ethanone] |  | 8.1
9 | O=C(NCCCN1CCOCC1)c1ccc(Nc2nc3c(C4C=CN(C(=O)CCC(F)(F)F)CC4)cccn3n2)cc1 (stereo not shown) [Example 1-295, N-(3-morpholinopropyl)-4-[[8-[1-(4,4,4-trifluorobutanoyl)-3,4-dihydro-2H-pyridin-4-yl]-[1,2,4]triazolo[1,5-a]pyridin-2-yl]amino]benzamide] |  | 729
10 | CNC1CCN(C(=O)Cn2cc(Nc3nc4c(N5CCC(CO)(c6ccc(Cl)cc6)CC5)cccn4n3)cn2)CC1 [Example 1-291, 2-[4-[[8-[4-(4-chlorophenyl)-4-(hydroxymethyl)-1-piperidyl]-[1,2,4]triazolo[1,5-a]pyridin-2-yl]amino]pyrazol-1-yl]-1-[4-(methylamino)-1-piperidyl]ethanone] |  | 525
11 | CCOC(=O)N1CC=C(c2cccn3nc(Nc4ccc(C(=O)N5CCC(N6CCOCC6)C5)cc4)nc23)CC1 (stereo not shown) [Example 2-66, ethyl 4-[2-[4-(3-morpholinopyrrolidine-1-carbonyl)anilino]-[1,2,4]triazolo[1,5-a]pyridin-8-yl]-3,6-dihydro-2H-pyridine-1-carboxylate] |  | 224
12 | CN1CCC(N(C)C(=O)c2ccc(Nc3nc4c(N5CCC(c6ccc(Cl)cc6)(C(O)C(F)(F)F)CC5)cccn4n3)cc2)CC1 (stereo not shown) [Example 1-253, 4-[[8-[4-(4-chlorophenyl)-4-(2,2,2-trifluoro-1-hydroxy-ethyl)-1-piperidyl]-[1,2,4]triazolo[1,5-a]pyridin-2-yl]amino]-N-methyl-N-(1-methyl-4-piperidyl)benzamide] |  | 418

Second part, led by results:

Row | IC50 [2] [nM] | Structure (SMILES) | IC50 [1] [nM]
13 | 23.4 | O=C(NCCc1ccncc1)c1ccc(Nc2nc3c(N4CCC(O)(c5ccc(Cl)cc5)CC4)cccn3n2)cc1 [Example 1-161, 4-[[8-[4-(4-chlorophenyl)-4-hydroxy-1-piperidyl]-[1,2,4]triazolo[1,5-a]pyridin-2-yl]amino]-N-[2-(4-pyridyl)ethyl]benzamide] | 48.5
14 | 3.5 | CC1CCCN(CCNC(=O)c2ccc(Nc3nc4c(C5=CCN(C(=O)CCC(F)(F)F)CC5)cccn4n3)cc2)C1 (stereo not shown) [Example 2-101, N-[2-(3-methyl-1-piperidyl)ethyl]-4-[[8-[1-(4,4,4-trifluorobutanoyl)-3,6-dihydro-2H-pyridin-4-yl]-[1,2,4]triazolo[1,5-a]pyridin-2-yl]amino]benzamide] | 31.8
15 | 10.3 | CNC1CN(C(=O)c2ccc(Nc3nc4c(N5CCC(O)(c6ccc(Cl)cc6)CC5)cccn4n3)cc2)C1 [Example 1-47, [4-[[8-[4-(4-chlorophenyl)-4-hydroxy-1-piperidyl]-[1,2,4]triazolo[1,5-a]pyridin-2-yl]amino]phenyl]-[3-(methylamino)azetidin-1-yl]methanone] | 58.1
16 | 22.1 | CC(C)(CNC(=O)c1ccc(Nc2nc3c(N4CCC(CO)(c5ccc(Cl)cc5)CC4)cccn3n2)cc1)N1CCOCC1 [Example 1-285, 4-[[8-[4-(4-chlorophenyl)-4-(hydroxymethyl)-1-piperidyl]-[1,2,4]triazolo[1,5-a]pyridin-2-yl]amino]-N-(2-methyl-2-morpholino-propyl)benzamide] | 57.6
17 | 3.2 | Cc1ccc(CNC(=O)c2ccc(Nc3nc4c(C5=CCN(C(=O)CCC(F)(F)F)CC5)cccn4n3)cc2)cn1 [Example 2-148, N-[(6-methyl-3-pyridyl)methyl]-4-[[8-[1-(4,4,4-trifluorobutanoyl)-3,6-dihydro-2H-pyridin-4-yl]-[1,2,4]triazolo[1,5-a]pyridin-2-yl]amino]benzamide] | 15
18 | 12.7 | CN1CCC(N(C)C(=O)c2ccc(Nc3nc4c(C5=CCN(C(=O)CCC(F)(F)F)CC5)cccn4n3)cc2)CC1 [Example 2-288, N-methyl-N-(1-methyl-4-piperidyl)-4-[[8-[1-(4,4,4-trifluorobutanoyl)-3,6-dihydro-2H-pyridin-4-yl]-[1,2,4]triazolo[1,5-a]pyridin-2-yl]amino]benzamide] | 77.7
19 | 11.9 | O=C(NCCCN1CCOCC1)c1ccc(Nc2nc3c(N4CCC(O)(c5ccc(Cl)cc5)CC4)cccn3n2)cc1 [Example 1-98, 4-[[8-[4-(4-chlorophenyl)-4-hydroxy-1-piperidyl]-[1,2,4]triazolo[1,5-a]pyridin-2-yl]amino]-N-(3-morpholinopropyl) benzamide] | 42.4
20 | 3.3 | CCN(Cc1ccncc1)C(=O)c1ccc(Nc2nc3c(C4=CCN(C(=O)CCC(F)(F)F)CC4)cccn3n2)cc1 [Example 2-219, N-ethyl-N-(4-pyridylmethyl)-4-[[8-[1-(4,4,4-trifluorobutanoyl)-3,6-dihydro-2H-pyridin-4-yl]-[1,2,4]triazolo[1,5-a]pyridin-2-yl]amino]benzamide] | 37.2
21 | 4.5 | O=C(CCC(F)(F)F)N1CC=C(c2cccn3nc(Nc4ccc(C(=O)N5CCOC(c6ccccn6)C5)cc4)nc23)CC1 (stereo not shown) [Example 2-154, 4,4,4-trifluoro-1-[4-[2-[4-[2-(2-pyridyl)morpholine-4-carbonyl]anilino]-[1,2,4]triazolo[1,5-a]pyridin-8-yl]-3,6-dihydro-2H-pyridin-1-yl]butan-1-one] | 80.6
22 | 5.6 | CC(C)(CNC(=O)c1ccc(Nc2nc3c(C4=CCN(C(=O)CCC(F)(F)F)CC4)cccn3n2)cc1)N1CCOCC1 [Example 2-213, N-(2-methyl-2-morpholino-propyl)-4-[[8-[1-(4,4,4-trifluorobutanoyl)-3,6-dihydro-2H-pyridin-4-yl]-[1,2,4]triazolo[1,5-a]pyridin-2-yl]amino]benzamide] | 20.6
23 | 14.7 | O=C(c1ccc(Nc2nc3c(N4CCC(O)(c5ccc(Cl)cc5)CC4)cccn3n2)cc1)N1CCC(N2CCOCC2)C1 (stereo not shown) [Example 1-127, [4-[[8-[4-(4-chlorophenyl)-4-hydroxy-1-piperidyl]-[1,2,4]triazolo[1,5-a]pyridin-2-yl]amino]phenyl]-(3-morpholinopyrrolidin-1-yl)methanone] | 24.5
24 | 2.9 | CN1CC[C@H]2CN(C(=O)c3ccc(Nc4nc5c(C6=CCN(C(=O)CCC(F)(F)F)CC6)cccn5n4)cc3)C[C@H]21 [Example 2-38, 1-[4-[2-[4-[(3aS,6aS)-1-methyl-2,3,3a,4,6,6a-hexahydropyrrolo[3,4-b]pyrrole-5-carbonyl]anilino]-[1,2,4]triazolo[1,5-a]pyridin-8-yl]-3,6-dihydro-2H-pyridin-1-yl]-4,4,4-trifluoro-butan-1-one] | 28.6
25 | 3.9 | O=C(CCC(F)(F)F)N1CC=C(c2cccn3nc(Nc4ccc(C(=O)N(Cc5ccccn5)C5CC5)cc4)nc23)CC1 [Example 2-272, N-cyclopropyl-N-(2-pyridylmethyl)-4-[[8-[1-(4,4,4-trifluorobutanoyl)-3,6-dihydro-2H-pyridin-4-yl]-[1,2,4]triazolo[1,5-a]pyridin-2-yl]amino]benzamide] | 106
